From ChEMBL document CHEMBL5113413, “New peptidomimetic rhodesain inhibitors with improved selectivity towards human cathepsins” (Eur J Med Chem, 2022)
Blank lines part the entries; values can stand above or below the compound they belong to. Active and inactive are the calls of the source. The calls are words filed in the database; no cut-off is given here.

Assays:
[1] = molecular target: T1, Cathepsin B (Homo sapiens, UniProt P07858); assay: Irreversible inhibition of human Cathepsin B assessed as second order rate constant using Cbz-Phe-Arg-AMC as fluorogenic substrate by fluorometric assay
[2] = molecular target: Genome polyprotein (dengue virus type 2) (UniProt P29990); assay: Inhibition of Dengue virus NS2B-NS3 protease at 11 uM using Boc-Gly-Arg-Arg-AMC as fluorogenic substrate by fluorometric assay
[3] = molecular target: Rhodesain (Trypanosoma brucei rhodesiense) (UniProt Q95PM0); assay: Irreversible inhibition of Trypanosoma brucei rhodesiense rhodesain assessed as Kinact using Cbz-Phe-Arg-AMC as fluorogenic substrate by fluorometric assay
[4] = molecular target: T1, Cathepsin B; assay: Irreversible inhibition of human Cathepsin B assessed as Kinact using Cbz-Phe-Arg-AMC as fluorogenic substrate by fluorometric assay
[5] = molecular target: Rhodesain (Trypanosoma brucei rhodesiense) (UniProt Q95PM0); assay: Irreversible inhibition of Trypanosoma brucei rhodesiense rhodesain assessed as second order rate constant using Cbz-Phe-Arg-AMC as fluorogenic substrate by fluorometric assay
[6] = molecular target: T2, Procathepsin L (Homo sapiens, UniProt P07711); assay: Irreversible inhibition of human Cathepsin L assessed as inhibition constant using Cbz-Phe-Arg-AMC as fluorogenic substrate by fluorometric assay
Target sequence in this assay (P07711 whole entry): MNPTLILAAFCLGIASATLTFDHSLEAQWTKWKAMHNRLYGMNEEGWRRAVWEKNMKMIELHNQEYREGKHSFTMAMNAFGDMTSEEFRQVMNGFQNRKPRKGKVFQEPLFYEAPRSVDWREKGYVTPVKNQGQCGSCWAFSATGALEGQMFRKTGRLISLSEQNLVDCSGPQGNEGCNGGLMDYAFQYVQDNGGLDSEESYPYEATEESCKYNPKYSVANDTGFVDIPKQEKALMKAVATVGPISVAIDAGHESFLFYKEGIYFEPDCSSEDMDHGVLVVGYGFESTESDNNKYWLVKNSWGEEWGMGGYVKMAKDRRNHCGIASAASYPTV

[7] = molecular target: T2, Procathepsin L; assay: Irreversible inhibition of human Cathepsin L assessed as second order rate constant using Cbz-Phe-Arg-AMC as fluorogenic substrate by fluorometric assay
Target sequence in this assay (P07711 114-333 limits assumed): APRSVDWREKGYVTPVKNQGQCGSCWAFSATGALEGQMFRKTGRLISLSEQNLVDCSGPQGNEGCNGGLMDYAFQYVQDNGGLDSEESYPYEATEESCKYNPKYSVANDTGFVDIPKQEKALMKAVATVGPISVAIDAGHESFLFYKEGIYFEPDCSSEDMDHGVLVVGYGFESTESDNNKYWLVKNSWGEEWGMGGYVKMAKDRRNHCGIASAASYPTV

[8] = molecular target: T1, Cathepsin B; assay: Irreversible inhibition of human Cathepsin B assessed as inhibition constant using Cbz-Phe-Arg-AMC as fluorogenic substrate by fluorometric assay
[9] = molecular target: Rhodesain (Trypanosoma brucei rhodesiense, UniProt Q95PM0); assay: Irreversible inhibition of Trypanosoma brucei rhodesiense rhodesain assessed as inhibition constant using Cbz-Phe-Arg-AMC as fluorogenic substrate by fluorometric assay
[10] = molecular target: T3, 20S proteasome (Homo sapiens) (UniProt P49721+P20618+P28074+P28062+P28065+P28072+P25786+P25787+P25788+P25789+P28066+P60900+O14818+Q8TAA3+P40306+A5LHX3+P49720+P28070+Q99436); assay: Inhibition of human 20S proteasome caspase-like activity at 11 uM using Cbz-Leu-Leu-Glu-AMC as fluorogenic substrate by fluorometric assay; assay type: protein-complex assay
[11] = molecular target: T2, Procathepsin L; assay: Irreversible inhibition of human Cathepsin L assessed as Kinact using Cbz-Phe-Arg-AMC as fluorogenic substrate by fluorometric assay
Target sequence in this assay (P07711 114-333 limits assumed): as above

[12] = molecular target: T2, Procathepsin L; assay: Inhibition of human Cathepsin L at 20 uM using Cbz-Phe-Arg-AMC as fluorogenic substrate by fluorometric assay
Target sequence in this assay (P07711 114-333 limits assumed): as above

[13] = molecular target: T1, Cathepsin B; assay: Inhibition of human Cathepsin B at 20 uM using Cbz-Phe-Arg-AMC as fluorogenic substrate by fluorometric assay
[14] = molecular target: T3, 20S proteasome (Homo sapiens); assay: Inhibition of human 20S proteasome trypsin-like activity at 11 uM using Boc-Leu-Arg-Arg-AMC as fluorogenic substrate by fluorometric assay; assay type: protein-complex assay
[15] = molecular target: Rhodesain (Trypanosoma brucei rhodesiense) (UniProt Q95PM0); assay: Irreversible inhibition of Trypanosoma brucei rhodesiense rhodesain assessed as no recovery of enzyme activity preincubated for 30 mins followed by substrate addition using Cbz-Phe-Arg-AMC as fluorogenic substrate by fluorometric 100-fold dilution assay
[16] = molecular target: Rhodesain (Trypanosoma brucei rhodesiense) (UniProt Q95PM0); assay: Reversible inhibition of Trypanosoma brucei rhodesiense rhodesain assessed as recovery of enzyme activity preincubated for 30 mins followed by substrate addition using Cbz-Phe-Arg-AMC as fluorogenic substrate by fluorometric 100-fold dilution assay
[17] = test system: Trypanosoma brucei brucei; assay: Antitrypanosomal activity against Trypanosoma brucei brucei BS449 assessed as luminescence incubated for 48 hrs by ATPlite assay; assay type: functional, organism-based; details: BS449, 48 h
[18] = Cytotoxicity against mouse J774.1 cells assessed as reduction in cell viability incubated for 48 hrs by MTT assay; assay type: toxicity, cell-based
[19] = molecular target: T3, 20S proteasome (Homo sapiens); assay: Inhibition of human 20S proteasome chymotrypsin-like activity at 11 uM using Succ-Leu-Leu-Val-Tyr-AMC as fluorogenic substrate by fluorometric assay; assay type: protein-complex assay
[20] = molecular target: Rhodesain (Trypanosoma brucei rhodesiense) (UniProt Q95PM0); assay: Inhibition of Trypanosoma brucei rhodesiense rhodesain at 20 uM using Cbz-Phe-Arg-AMC as fluorogenic substrate by fluorometric assay

Sequence of Rhodesain (Trypanosoma brucei rhodesiense) (Q95PM0 1-450): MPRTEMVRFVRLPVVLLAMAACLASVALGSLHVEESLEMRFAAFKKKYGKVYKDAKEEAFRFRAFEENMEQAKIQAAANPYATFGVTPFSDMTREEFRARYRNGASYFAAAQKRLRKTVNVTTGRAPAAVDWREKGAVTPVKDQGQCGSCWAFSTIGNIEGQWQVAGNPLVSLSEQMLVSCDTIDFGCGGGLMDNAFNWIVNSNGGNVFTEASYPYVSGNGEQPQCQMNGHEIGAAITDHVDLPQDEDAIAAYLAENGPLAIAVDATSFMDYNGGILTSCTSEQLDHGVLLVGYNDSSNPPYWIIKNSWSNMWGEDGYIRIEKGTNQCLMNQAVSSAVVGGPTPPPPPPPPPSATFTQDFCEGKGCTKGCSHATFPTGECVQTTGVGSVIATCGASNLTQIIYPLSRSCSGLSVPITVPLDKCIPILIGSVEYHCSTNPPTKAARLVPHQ
Sequence of Rhodesain (Q95PM0 whole entry): as the sequence (Q95PM0 1-450) above

Compound: O=C(NCc1ccccc1C(=O)N[C@H](/C=C/S(=O)(=O)c1ccccc1)CCc1ccccc1)c1cc(F)cc(F)c1
Kdiss [1]: 7.24 10^2/M/s
inhibition [2]: 11%
Kinact [3]: 0.0173 s⁻¹
Kinact [4]: 0.0022 s⁻¹
Second-order inactivation rate constant (kinact/Ki) [5]: 1.59 10^5/M/s
Ki [6]: 1890 nM
Second-order inactivation rate constant [7]: 2.38 10^3/M/s
Ki [8]: 3040 nM
Ki [9]: 109 nM
inhibition [10]: 24%
Kinact [11]: 0.0045 s⁻¹

Compound: O=C(NCc1ccccc1C(=O)N[C@H](/C=C/S(=O)(=O)Cc1ccccc1)CCc1ccccc1)c1cc(F)cc(F)c1
Kinact [3]: 0.0125 s⁻¹
Second-order inactivation rate constant (kinact/Ki) [5]: 0.35 10^5/M/s
inhibition [12]: 31%
inhibition [13]: < 10%
Ki [9]: 356 nM

Compound: O=C(NCc1ccccc1C(=O)N[C@H](/C=C(\F)S(=O)(=O)c1ccccc1)CCc1ccccc1)c1ccc2c(c1)OCCO2
inhibition [14]: 14%
inhibition [12]: 31%
inhibition [15]: Active
inhibition [13]: < 10%
Ki [9]: 339 nM
inhibition [10]: 34%
inhibition [16]: Active

Compound: O=C(NCc1ccccc1C(=O)N[C@H](/C=C/S(=O)(=O)c1ccccc1)CCc1ccccc1)c1ccncc1
Kinact [3]: 0.0046 s⁻¹
Second-order inactivation rate constant (kinact/Ki) [5]: 0.43 10^5/M/s
Ki [6]: 2250 nM
Second-order inactivation rate constant [7]: 1.16 10^3/M/s
inhibition [13]: 44%
Ki [9]: 107 nM
Kinact [11]: 0.0026 s⁻¹

Compound: O=C(NCc1ccccc1C(=O)N[C@H](/C=C/S(=O)(=O)Oc1ccccc1)CCc1ccccc1)c1ccncc1
inhibition [2]: 26%
EC50 [17]: 4200 nM
Ki [6]: 1150 nM
Ki [8]: 1010 nM
Ki [9]: 9 nM
inhibition [10]: 41%

Compound: CNC(=O)Cc1ccccc1C(=O)N[C@H](/C=C/S(=O)(=O)c1ccccc1)CCc1ccccc1
EC50 [17]: 13000 nM
CC50 at 48 h [18]: > 100000 nM
Ki [9]: 470 nM

Compound: O=C(NCc1ccccc1C(=O)N[C@H](/C=C(\F)S(=O)(=O)c1ccccc1)CCc1ccccc1)c1cc(F)cc(F)c1
Ki [9]: 601 nM

Compound: O=C(NCc1ccccc1C(=O)N[C@H](/C=C/S(=O)(=O)c1ccccc1)CCc1ccccc1)c1cccc(O)c1
EC50 [17]: 3300 nM
CC50 at 48 h [18]: 36000 nM
Ki [9]: 651 nM

Compound: O=C(NCc1ccccc1C(=O)N[C@H](/C=C/S(=O)(=O)Oc1ccccc1)CCc1ccccc1)c1cc(F)cc(F)c1
Kdiss [1]: 9.34 10^3/M/s
inhibition [2]: 35%
Kinact [3]: 0.0117 s⁻¹
inhibition [19]: 14%
Kinact [4]: 0.0071 s⁻¹
Second-order inactivation rate constant (kinact/Ki) [5]: 7.8 10^5/M/s
Ki [6]: 560 nM
Second-order inactivation rate constant [7]: 3.92 10^3/M/s
Ki [8]: 760 nM
Ki [9]: 15 nM
inhibition [10]: 33%
Kinact [11]: 0.0022 s⁻¹

Compound: O=C(Cc1ccccc1C(=O)N[C@H](/C=C/S(=O)(=O)c1ccccc1)CCc1ccccc1)Nc1cccc(C(=O)O)c1
EC50 [17]: > 40000 nM
Ki [9]: 17600 nM

Compound: O=C(NCc1ccccc1C(=O)N[C@H](/C=C(\F)S(=O)(=O)Cc1ccccc1)CCc1ccccc1)c1cc(F)cc(F)c1
Ki [9]: 608 nM

Compound: O=C(NCc1ccccc1C(=O)N[C@H](/C=C/S(=O)(=O)Oc1ccccc1)CCc1ccccc1)c1ccc2c(c1)OCCO2
Kdiss [1]: 1.64 10^4/M/s
inhibition [2]: 31%
Kinact [3]: 0.0079 s⁻¹
inhibition [19]: 12%
Kinact [4]: 0.013 s⁻¹
Second-order inactivation rate constant (kinact/Ki) [5]: 7.9 10^5/M/s
Ki [6]: 310 nM
Second-order inactivation rate constant [7]: 3.34 10^4/M/s
Ki [8]: 800 nM
inhibition [15]: Active
Ki [9]: 10 nM
inhibition [10]: 43%
Kinact [11]: 0.0104 s⁻¹

Compound: O=C(NCc1ccccc1C(=O)N[C@H](/C=C(\F)S(=O)(=O)c1ccccc1)CCc1ccccc1)c1ccccc1
EC50 [17]: 3300 nM
CC50 at 48 h [18]: 43000 nM
Ki [6]: 8800 nM
inhibition [13]: < 10%
Ki [9]: 568 nM
inhibition [10]: 25%

Compound: O=C(NCc1ccccc1C(=O)N[C@H](/C=C(\F)S(=O)(=O)Oc1ccccc1)CCc1ccccc1)c1ccncc1
EC50 [17]: 1800 nM
CC50 at 48 h [18]: > 100000 nM
Ki [9]: 916 nM

Compound: O=C(NCc1ccccc1C(=O)N[C@H](/C=C/S(=O)(=O)c1ccccc1)CCc1ccccc1)c1ccccc1
EC50 [17]: 3600 nM
inhibition [19]: 14%
CC50 at 48 h [18]: > 100000 nM
Ki [6]: 1490 nM
inhibition [14]: 23%
Ki [8]: 1980 nM
Ki [9]: 100 nM
inhibition [10]: 39%

Compound: O=C(NCc1ccccc1C(=O)N[C@H](/C=C/S(=O)(=O)Cc1ccccc1)CCc1ccccc1)c1ccc2c(c1)OCCO2
Kinact [3]: 0.0038 s⁻¹
Second-order inactivation rate constant (kinact/Ki) [5]: 0.64 10^5/M/s
inhibition [12]: 39%
inhibition [13]: < 10%
Ki [9]: 59 nM

Compound: O=C(NCc1ccccc1C(=O)N[C@H](/C=C(\F)S(=O)(=O)Oc1ccccc1)CCc1ccccc1)c1cc(F)cc(F)c1
inhibition [12]: 14%
inhibition [13]: < 10%
Ki [9]: 638 nM

Compound: O=C(NCc1ccccc1C(=O)N[C@H](/C=C(\F)S(=O)(=O)Oc1ccccc1)CCc1ccccc1)c1ccc2c(c1)OCCO2
EC50 [17]: 3000 nM
CC50 at 48 h [18]: > 100000 nM
inhibition [12]: 23%
inhibition [15]: Active
inhibition [13]: < 10%
Ki [9]: 379 nM
inhibition [16]: Active

Compound: O=C(O)c1ccc(C(=O)NCc2ccccc2C(=O)N[C@H](/C=C/S(=O)(=O)c2ccccc2)CCc2ccccc2)cc1
Kinact [3]: 0.0031 s⁻¹
Second-order inactivation rate constant (kinact/Ki) [5]: 0.0077 10^5/M/s
Ki [9]: 4030 nM

Compound: CN1CCN(C(=O)NCc2ccccc2C(=O)N[C@H](/C=C/S(=O)(=O)Cc2ccccc2)CCc2ccccc2)CC1
Kinact [3]: 0.005 s⁻¹
Second-order inactivation rate constant (kinact/Ki) [5]: 0.16 10^5/M/s
Ki [9]: 318 nM

Compound: O=C(NCc1ccccc1C(=O)N[C@H](/C=C(\F)S(=O)(=O)Cc1ccccc1)CCc1ccccc1)c1ccncc1
Ki [9]: 840 nM

Compound: O=C(NCc1ccccc1C(=O)N[C@H](/C=C/S(=O)(=O)Cc1ccccc1)CCc1ccccc1)c1ccncc1
Kinact [3]: 0.006 s⁻¹
Second-order inactivation rate constant (kinact/Ki) [5]: 0.14 10^5/M/s
Ki [9]: 436 nM

Compound: O=C(NCc1ccccc1C(=O)N[C@H](/C=C/S(=O)(=O)Cc1ccccc1)CCc1ccccc1)c1ccccc1
Kinact [3]: 0.0095 s⁻¹
Second-order inactivation rate constant (kinact/Ki) [5]: 0.24 10^5/M/s
Ki [9]: 389 nM

inhibition [15]: Active
Compound: CN1CCN(C(=O)N[C@@H](Cc2ccccc2)C(=O)N[C@H](/C=C/S(=O)(=O)c2ccccc2)CCc2ccccc2)CC1 [K-777]
CC50 at 48 h [18]: 41000 nM

Compound: O=C(NCc1ccccc1C(=O)N[C@H](/C=C/S(=O)(=O)c1ccccc1)CCc1ccccc1)c1ccc2c(c1)OCCO2
Kinact [3]: 0.0005 s⁻¹
Second-order inactivation rate constant (kinact/Ki) [5]: 0.01 10^5/M/s
inhibition [12]: 41%
inhibition [13]: < 10%
Ki [9]: 504 nM

Compound: O=C(Cc1ccccc1C(=O)N[C@H](/C=C/S(=O)(=O)c1ccccc1)CCc1ccccc1)Nc1ccc(C(=O)O)cc1
EC50 [17]: 28000 nM
Ki [9]: 290 nM

Compound: O=C(NCc1ccccc1C(=O)N[C@H](/C=C(\F)S(=O)(=O)Cc1ccccc1)CCc1ccccc1)c1ccc2c(c1)OCCO2
inhibition [12]: 15%
inhibition [15]: Active
inhibition [13]: < 10%
Ki [9]: 491 nM
inhibition [16]: Active

inhibition [20]: 18%
Compound: CN1CCN(C(=O)NCc2ccccc2C(=O)N[C@H](/C=C(\F)S(=O)(=O)c2ccccc2)CCc2ccccc2)CC1

Compound: O=C(NCc1ccccc1C(=O)N[C@H](/C=C(\F)S(=O)(=O)c1ccccc1)CCc1ccccc1)c1ccncc1
Ki [6]: 14100 nM
inhibition [13]: < 10%
Ki [9]: 430 nM

Compound: O=C(O)c1cccc(C(=O)NCc2ccccc2C(=O)N[C@H](/C=C/S(=O)(=O)c2ccccc2)CCc2ccccc2)c1
EC50 [17]: 15000 nM
CC50 at 48 h [18]: > 100000 nM
Ki [9]: 7430 nM

Compound: CC(=O)N(Cc1ccccc1C(=O)N[C@H](/C=C/S(=O)(=O)c1ccccc1)CCc1ccccc1)C(C)=O
EC50 [17]: 5700 nM
CC50 at 48 h [18]: 36000 nM
Ki [9]: 940 nM

Compound: CC(=O)NCc1ccccc1C(=O)N[C@H](/C=C/S(=O)(=O)c1ccccc1)CCc1ccccc1
EC50 [17]: 13500 nM
CC50 at 48 h [18]: 48000 nM
Ki [9]: 4680 nM
